Our source for the Kd values is patent publication US20250064941A1, “SIGLEC LIGANDS, CONJUGATES, AND METHODS OF USE THEREOF” (Osprey Biopharmaceuticals, Inc., priority 2023, published 2025).

Assay [1] concerns the target T1, mouse Siglec-2-Fc-Avi (CD22) (Mus musculus, UniProt P35329).
T1 construct: made in house
T1 sequence (P35329 22-708 limits assumed): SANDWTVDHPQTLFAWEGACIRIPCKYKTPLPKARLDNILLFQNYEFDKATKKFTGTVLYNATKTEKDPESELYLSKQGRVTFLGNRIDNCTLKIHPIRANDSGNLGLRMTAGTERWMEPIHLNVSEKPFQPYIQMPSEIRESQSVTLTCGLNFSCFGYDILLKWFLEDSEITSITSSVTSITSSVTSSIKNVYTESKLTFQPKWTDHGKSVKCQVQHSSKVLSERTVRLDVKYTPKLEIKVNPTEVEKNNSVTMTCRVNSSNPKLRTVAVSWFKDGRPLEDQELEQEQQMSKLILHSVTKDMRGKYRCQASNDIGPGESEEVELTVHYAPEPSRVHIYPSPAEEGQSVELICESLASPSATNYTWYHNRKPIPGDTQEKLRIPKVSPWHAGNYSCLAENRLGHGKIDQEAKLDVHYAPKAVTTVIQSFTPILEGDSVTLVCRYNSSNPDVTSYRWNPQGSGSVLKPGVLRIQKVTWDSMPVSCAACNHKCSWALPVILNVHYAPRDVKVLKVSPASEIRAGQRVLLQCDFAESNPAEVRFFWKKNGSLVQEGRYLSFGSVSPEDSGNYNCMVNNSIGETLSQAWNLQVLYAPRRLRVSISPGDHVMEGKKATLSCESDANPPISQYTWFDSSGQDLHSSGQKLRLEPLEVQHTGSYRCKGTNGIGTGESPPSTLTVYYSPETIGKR
The experiment in a line: SPR binding affinity to mouse CD22. The settings on record: steady-state analysis. An outline of the steps:
(§1)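 Native sialic acid residues are removed from the receptor enzymatically (4 hours at 37° C.) prior to streptavidin capture of the biotinylated protein. Ligand compounds then flow over in HEPES-buffered saline, pH 7.5, containing 0.05% Tween-20 and 1% DMSO, and binding is evaluated at steady state.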
(In general: SPR reads the build-up and loss of mass on a sensor chip optically.)

Assay [2] deals with T2, human Siglec-2/CD22 protein (Homo sapiens, UniProt P20273).
T2 construct: purchased Acro Biosystems SI2-H82E3
T2 sequence (P20273 20-847): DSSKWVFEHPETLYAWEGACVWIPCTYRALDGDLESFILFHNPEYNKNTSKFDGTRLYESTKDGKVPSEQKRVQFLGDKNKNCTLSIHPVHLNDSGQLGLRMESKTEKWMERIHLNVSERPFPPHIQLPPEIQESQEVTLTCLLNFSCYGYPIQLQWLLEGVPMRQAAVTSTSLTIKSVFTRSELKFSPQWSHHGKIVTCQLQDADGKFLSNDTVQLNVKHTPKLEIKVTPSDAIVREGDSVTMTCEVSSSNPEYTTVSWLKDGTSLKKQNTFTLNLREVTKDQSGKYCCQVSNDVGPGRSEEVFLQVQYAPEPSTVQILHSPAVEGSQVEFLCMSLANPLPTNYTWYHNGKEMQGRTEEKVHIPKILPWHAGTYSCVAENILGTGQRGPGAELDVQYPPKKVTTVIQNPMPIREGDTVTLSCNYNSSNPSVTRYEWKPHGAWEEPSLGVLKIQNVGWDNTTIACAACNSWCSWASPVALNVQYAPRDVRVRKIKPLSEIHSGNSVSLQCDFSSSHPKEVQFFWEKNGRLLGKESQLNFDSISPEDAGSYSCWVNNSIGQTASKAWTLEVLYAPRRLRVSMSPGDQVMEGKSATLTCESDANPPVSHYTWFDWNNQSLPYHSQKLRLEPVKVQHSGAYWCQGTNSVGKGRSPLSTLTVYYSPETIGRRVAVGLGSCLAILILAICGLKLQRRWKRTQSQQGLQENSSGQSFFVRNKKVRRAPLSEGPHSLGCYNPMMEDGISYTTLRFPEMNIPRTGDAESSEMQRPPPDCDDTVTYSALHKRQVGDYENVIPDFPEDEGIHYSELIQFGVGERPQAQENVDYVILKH
The assay is described as follows: SPR binding affinity to human CD22. The note with it: steady-state analysis. An outline of the steps:
as §1

Assay [3] has as its target cynomolgus Siglec-2/CD22 (Macaca fascicularis, UniProt A0A2K5WCZ6). The assay is described as follows: biochemical. The note with it: SPR, steady-state analysis; read-out: Affinity cyno CD22. Type of assay: binding. An outline of the steps: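 SPR with desialylated (SialoExo, 4 h, 37° C.) cynomolgus CD22 amine-coupled to a CM5 chip. Running buffer 10 mM HEPES, 150 mM NaCl, 0.05% Tween-20, pH 7.5, 1% DMSO, with solvent correction; 120 s dissociation. Affinities from steady-state analysis.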

The structures appear in SMILES notation.

Sequence of cynomolgus Siglec-2/CD22 (A0A2K5WCZ6 entry or part of it): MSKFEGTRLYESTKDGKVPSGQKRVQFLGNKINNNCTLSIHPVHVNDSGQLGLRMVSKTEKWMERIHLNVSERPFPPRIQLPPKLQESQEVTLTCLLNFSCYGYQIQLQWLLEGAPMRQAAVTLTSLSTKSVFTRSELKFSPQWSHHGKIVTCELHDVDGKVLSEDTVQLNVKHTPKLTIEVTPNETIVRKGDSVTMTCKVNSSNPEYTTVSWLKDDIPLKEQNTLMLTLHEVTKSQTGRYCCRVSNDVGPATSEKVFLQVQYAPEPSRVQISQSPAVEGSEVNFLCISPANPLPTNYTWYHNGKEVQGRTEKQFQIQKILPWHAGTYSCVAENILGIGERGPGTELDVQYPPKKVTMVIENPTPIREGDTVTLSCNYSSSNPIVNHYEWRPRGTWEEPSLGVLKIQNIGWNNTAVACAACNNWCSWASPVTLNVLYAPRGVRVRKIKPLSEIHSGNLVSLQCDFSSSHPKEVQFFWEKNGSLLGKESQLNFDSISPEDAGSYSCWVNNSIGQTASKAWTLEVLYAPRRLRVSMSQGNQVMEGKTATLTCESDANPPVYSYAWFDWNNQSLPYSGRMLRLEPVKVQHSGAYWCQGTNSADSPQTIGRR

Take `C#CCOCCCCCCO[C@]1(C(=O)O)C[C@H](O)[C@@H](Nc2c(N)c(=O)c2=O)[C@H]([C@H](O)[C@H](O)CNC(=O)Cc2ccc(Cl)cc2)O1` [Compound 190, (2R,4S,5R,6R)-5-((2-amino-3,4-dioxocyclobut-1-en-1-yl)amino)-6-((1R,2R)-3-(2-(4-chlorophenyl)acetamido)-1,2-dihydroxypropyl)-4-hydroxy-2-((6-(prop-2-yn-1-yloxy)hexyl)oxy)tetrahydro-2H-pyran-2-carboxylic acid]: the Kd was 1 to 10 µM in assay [1], less than 1 µM in assay [2] and less than 1 µM in assay [3].
Take `C#CCOCCCCCCO[C@]1(C(=O)O)C[C@H](O)[C@@H](NC(=O)COC)[C@H]([C@H](O)[C@H](O)CNC(=O)Cc2ccc(Cl)cc2)O1` [Compound 192, (2R,4S,5R,6R)-6-((1R,2R)-3-(2-(4-chlorophenyl)acetamido)-1,2-dihydroxypropyl)-4-hydroxy-5-(2-methoxyacetamido)-2-((6-(prop-2-yn-1-yloxy)hexyl)oxy)tetrahydro-2H-pyran-2-carboxylic acid]: the Kd in assay [1] is greater than 10 µM; in assay [2], 1 to 10 µM; in assay [3] it was 1 to 10 µM.
For `C#CCOCCCCCCO[C@]1(C(=O)O)C[C@H](O)[C@@H](NC(=O)NCC(F)(F)F)[C@H]([C@H](O)[C@H](O)CNC(=O)Cc2ccc(Cl)cc2)O1` [Compound 193, (2R,4S,5R,6R)-6-((1R,2R)-3-(2-(4-chlorophenyl)acetamido)-1,2-dihydroxypropyl)-4-hydroxy-2-((6-(prop-2-yn-1-yloxy)hexyl)oxy)-5-(3-(2,2,2-trifluoroethyl)ureido)tetrahydro-2H-pyran-2-carboxylic acid], the Kd in assay [1], in assay [2] and in assay [3] was 1 to 10 µM throughout.
For the compound `O=C(Cc1ccc(Cl)cc1)NC[C@@H](O)[C@@H](O)[C@@H]1O[C@@](SCc2ccc(C(=O)O)cc2)(C(=O)O)C[C@H](O)[C@H]1NC(=O)CO` [Compound 195, (2S,4S,5R,6R)-2-((4-carboxybenzyl)thio)-6-((1R,2R)-3-(2-(4-chlorophenyl)acetamido)-1,2-dihydroxypropyl)-4-hydroxy-5-(2-hydroxyacetamido)tetrahydro-2H-pyran-2-carboxylic acid], the Kd in assay [1], in assay [2] and in assay [3] was less than 1 µM each time.
`C#CCOCCOCCO[C@]1(C(=O)O)C[C@H](O)[C@@H](NC(=O)CO)[C@H]([C@H](O)[C@H](O)CNC(=O)Cc2ccc3[nH]ccc3c2)O1` [Compound 196, (2R,4S,5R,6R)-6-((1R,2R)-3-(2-(1H-indol-5-yl)acetamido)-1,2-dihydroxypropyl)-4-hydroxy-5-(2-hydroxyacetamido)-2-(2-(2-(prop-2-yn-1-yloxy)ethoxy)ethoxy)tetrahydro-2H-pyran-2-carboxylic acid]: the Kd is 1 to 10 µM in assay [1], less than 1 µM in assay [2] and less than 1 µM in assay [3].
On to `C#CCOCCOCCO[C@]1(C(=O)O)C[C@H](O)[C@@H](NC(=O)CO)[C@H]([C@H](O)[C@H](O)CNC(=O)Cc2ccc(O)c(Cl)c2)O1` [Compound 197, (2R,4S,5R,6R)-6-((1R,2R)-3-(2-(3-chloro-4-hydroxyphenyl)acetamido)-1,2-dihydroxypropyl)-4-hydroxy-5-(2-hydroxyacetamido)-2-(2-(2-(prop-2-yn-1-yloxy)ethoxy)ethoxy)tetrahydro-2H-pyran-2-carboxylic acid], for which the Kd in assay [1], in assay [2] and in assay [3] was greater than 10 µM throughout.
For the compound `C#CCOCCOCCO[C@]1(C(=O)O)C[C@H](O)[C@@H](NC(=O)CO)[C@H]([C@H](O)[C@H](O)CNC(=O)c2ccc(O)cc2)O1` [Compound 198, (2R,4S,5R,6R)-6-((1R,2R)-1,2-dihydroxy-3-(4-hydroxybenzamido)propyl)-4-hydroxy-5-(2-hydroxyacetamido)-2-(2-(2-(prop-2-yn-1-yloxy)ethoxy)ethoxy)tetrahydro-2H-pyran-2-carboxylic acid], the Kd in assay [1], in assay [2] and in assay [3] was greater than 10 µM in each case.
Take `C#CCOCCOCCO[C@]1(C(=O)O)C[C@H](O)[C@@H](NC(=O)NCC(F)(F)F)[C@H]([C@H](O)[C@H](O)CNC(=O)Cc2ccc(-c3ccc(O)cc3)cc2)O1` [Compound 199, (2R,4S,5R,6R)-6-((1R,2R)-1,2-dihydroxy-3-(2-(4′-hydroxy-[1,1′-biphenyl]-4-yl)acetamido)propyl)-4-hydroxy-2-(2-(2-(prop-2-yn-1-yloxy)ethoxy)ethoxy)-5-(3-(2,2,2-trifluoroethyl)ureido)tetrahydro-2H-pyran-2-carboxylic acid]: the Kd in assay [1], in assay [2] and in assay [3] was greater than 10 µM each time.
As to `C#CCOCCOCCO[C@]1(C(=O)O)C[C@H](O)[C@@H](NC(=O)CO)[C@H]([C@H](O)[C@H](O)CNC(=O)C[C@H]2CC[C@@H](O)CC2)O1` [Compound 200, (2R,4S,5R,6R)-6-((1R,2R)-1,2-dihydroxy-3-(2-((1s,4S)-4-hydroxycyclohexyl)acetamido)propyl)-4-hydroxy-5-(2-hydroxyacetamido)-2-(2-(2-(prop-2-yn-1-yloxy)ethoxy)ethoxy)tetrahydro-2H-pyran-2-carboxylic acid], the Kd in assay [1], in assay [2] and in assay [3] was greater than 10 µM throughout.
As for `C#CCOCCOCCO[C@]1(C(=O)O)C[C@H](O)[C@@H](NC(=O)CO)[C@H]([C@H](O)[C@H](O)CNC(=O)c2cccc(Cl)c2)O1` [Compound 201, (2R,4S,5R,6R)-6-((1R,2R)-3-(3-chlorobenzamido)-1,2-dihydroxypropyl)-4-hydroxy-5-(2-hydroxyacetamido)-2-(2-(2-(prop-2-yn-1-yloxy)ethoxy)ethoxy)tetrahydro-2H-pyran-2-carboxylic acid], the Kd in assay [1], in assay [2] and in assay [3] was greater than 10 µM each time.
For `C#CCOCCOCCO[C@]1(C(=O)O)C[C@H](O)[C@@H](NC(=O)CO)[C@H]([C@H](O)[C@H](O)CNC(=O)c2ccccc2)O1` [Compound 202, (2R,4S,5R,6R)-6-((1R,2R)-3-benzamido-1,2-dihydroxypropyl)-4-hydroxy-5-(2-hydroxyacetamido)-2-(2-(2-(prop-2-yn-1-yloxy)ethoxy)ethoxy)tetrahydro-2H-pyran-2-carboxylic acid], the Kd in assay [1] is 1 to 10 µM; in assay [2] it was greater than 10 µM; in assay [3] it was less than 1 µM.
In the case of `CCCCCC[C@H](O)[C@]1(C(=O)O)C[C@H](O)[C@@H](NC(=O)CO)[C@H]([C@H](O)[C@H](O)CNC(=O)Cc2ccc(Cl)cc2)O1` [Compound 203, (2S,4S,5R,6R)-6-((1R,2R)-3-(2-(4-chlorophenyl)acetamido)-1,2-dihydroxypropyl)-4-hydroxy-5-(2-hydroxyacetamido)-2-((S)-1-hydroxyheptyl)tetrahydro-2H-pyran-2-carboxylic acid], the Kd in assay [1] was 1 to 10 µM; in assay [2], less than 1 µM; in assay [3], less than 1 µM.
